According to US20240116984A1, “MODIFIED PEPTIDES FOR THE INHIBITION OF ABNORMAL TAU ACCUMULATION” (University of Notre Dame du Lac, priority 2021, published 2024):
Entries after “also recorded” stand apart in the source; their conditions may differ. Starred links: 1 amine or outer side, 2 acyl side, 3 side chain; linkers in the order of their positions; H or OH if unused. Non-standard residues stand in square brackets, D forms with d. Residues, ends and D or L forms follow the SMILES beside them. Primed or numbered codes have the meaning given here. *: point of attachment. aIle′ = Ile with backbone N-amino (N-aminated amide nitrogen), CC[C@H](C)[C@@H](C(=O)[*:2])N(N)[*:1]; aVal = Val with backbone N-amino (N-aminated amide nitrogen), CC(C)[C@@H](C(=O)[*:2])N(N)[*:1]; X2 = NN([C@@H](Cc1ccc(O)cc1)C(=O)[*:2])[*:1]; X1 = CC[C@H](C)[C@@H](C(=O)[*:2])N(N)[*:1]; N(NH2)LysNH2 = NCCCC[C@@H](C(N)=O)N(N)*; X3 = CC(C)[C@@H](C(=O)[*:2])N(N)[*:1]; N(NH2)Lys = NCCCC[C@H](NN)C(=O)O

Assays:
[1] = tested on: HEK293 cells stably expressing tau-RD (P301L/V337M)-YFP; type: cell-based, human; settings: 36 h
Procedure: TauP301L was diluted to a final concentration of 10 μM in an aggregation buffer containing 100 mM sodium acetate, 10 μM heparin, 2 mM DTT, pH 7.4. The protein was incubated in a microcentrifuge tube for 4 days at 37° C. with a shaking speed of 100 rpm. Control vials included those wherein (1) buffer was added in place of tauP301L, and (2) buffer was added in place of heparin.
(§1) HEK293 cells stably expressing tau-RD (LM)-YFP were cultured in DMEM media containing 10% FBS, 1% penicillin/streptomycin, and 1% Glutamax™ (Gibco) in a 75 cm^2 cell culture flask under 5% CO2 at 37° C. For each experiment, cells were plated at a density of 15000 cells/well into 96 well tissue culture plates.
TauP301L fibrils were prepared as described above (see section on fibril formation) and sonicated for 3 minutes prior to use in this assay. In a reaction volume of 40 μL, 8 μL of fibrils was diluted with 31 μL of low-serum Opti-MEM® (Gibco) media and then mixed with 1 μL of NAPs (DMSO concentration was constant across various concentration of inhibitors). […] IC50 values were calculated by fitting the data set using sigmoidal logistic 4 parameter equation. Error bars represent standard deviation from technical replicates. % Tau infection was calculated using following formula: […]

[2] = Human serum stability assay; type: in vitro ADME; settings: 25% human serum, 24 h
Procedure: The stability of NAPs in 25% human serum (Millipore Sigma) was assessed by HPLC. The reaction was started by adding NAPs at a final concentration of 500 μM in pre-warmed serum. The mixture was incubated at 37° C. for 24 h. A 100 μL aliquot of the reaction mixture was taken out at 0 h, 1 h, 4 h, and 24 h and was mixed with an equal volume of 20% TCA and incubated at 4° C. for 15 minutes to precipitate serum proteins. After centrifugation at 12000 rpm for 10 min, the supernatant was collected and mixed with an internal standard (1 mg/mL of Cbz-Tyr-OH dissolved in MeCN) and stored at −20° C. Samples were then analyzed by LC-MS and the percentage of peptide remaining was calculated by integrating peaks.

[3] = tested on: human neuroblastoma SH-SY5Y cells; assay: MTT cell viability assay on SH-SY5Y cells; type: cell-based; settings: 10 μM and 50 μM, 48 h
Procedure: MTT cell viability assays were carried out on both HEK293 cells stably expressing tau-RD (LM)-YFP and SH-SY5Y cells. Cells were cultured in DMEM/F12 complete media containing 10% FBS, 1% penicillin/streptomycin and 1% Glutamax™ (Gibco) in a 75 cm^2 cell culture flask under 5% CO2 at 37° C. Cell viability was determined using MTT reduction assay. Briefly, 15,000 cells/well were plated in a 96 well tissue culture plate and were allowed to incubate overnight in a CO2 incubator. The media was aspirated, and the NAP inhibitor prepared in complete media was added at a given final concentration. The plate was then allowed to incubate for additional 48 h in a CO2 incubator and the media was aspirated again and replaced with 0.5 mg/mL of MTT prepared in complete media and incubated for additional 3 h. Media was then replaced with DMSO to dissolve formazan crystals and the absorbance was measured at 570 nm using Synergy H1 micro plate reader. Each data set were collected from technical replicates on at least two different days.

[4] = tested on: Recombinant tauP301L (0N4R); assay: Thioflavin T (ThT) fluorescence aggregation assay of recombinant tauP301L; type: biochemical, human; settings: Tau 10 μM : inhibitor 20 μM (2-fold molar excess), heparin, 48 h
Procedure: Recombinant tauP301L (10 μM final concentration) and NAP inhibitors 20 μM final concentration) were mixed in an aggregation buffer (100 mM sodium acetate, 10 μM ThT, 10 μM heparin, 2 mM DTT, 0.5% DMSO, pH 7.4) in a 96-well clear bottom black plate with a final reaction volume of 200 μL. The plate was then sealed with a clear sealing film and allowed to incubate at 37° C. with continuous shaking in a Biotek Synergy H1 microplate reader. An automated method was used to carry out ThT fluorescence measurements at an excitation wavelength of 444 nm and an emission wavelength of 485 nm at an interval of every 5 minutes for 48 hours. Experiments were carried out in technical replicates on at least two different days. Every experiment included control wells that lacked tau301L, heparin, or NAPs. The average of tau-only (no heparin) wells was used to subtract background fluorescence and the average of the first and last 10 data points of tau+heparin wells, after blank subtraction, was used to normalize the data. All data plots were generated with SigmaPlot.

tauP301L fibrils = assay: Transmission electron microscopy of heparin-induced tauP301L fibrils; type: biochemical, human; settings: two-fold molar excess of inhibitor, 96 h
Procedure: For analyzing fibrils by transmission electron microscopy (TEM), aggregation was carried out under conditions similar to the assay above but with ThT excluded and a final reaction volume of 100 μL Samples were incubated in a microcentrifuge tube for 4 days at 37° C. with a mixing speed of 100 rpm. A 10 μL aliquot of the sample was then applied to 400-meshed formvar/carbon-coated copper grids and negative stained with 2% uranyl-acetate. Micrographs were taken on a JEOL 2011 TEM at 200 kV.

[5] = tested on: HEK293 cells stably expressing tau-RD (P301L/V337M)-YFP; assay: Cellular seeding assay, seeding by monomeric tau co-incubated with NAPs; type: cell-based, human; settings: 0.19 μM Tau, 4 days co-incubation, cells 48 h
Procedure: as §1
Monomeric tauP301L was co-incubated with NAPs for 4 days in an aggregation buffer at 37° C. (see above section). Following incubation, the reaction mixture was diluted in low serum Opti-MEM® media (Gibco), mixed with lipofectamine 2000 in 20:1 ratio (complex:lipofectamine) and allowed to incubate for an additional 20 minutes at RT. A mixture of 0.19 μM of Tau+1.9 μM or 0.009 μM of inhibitors (final concentrations) was added to the cells. Cells were incubated for additional 48 h before taking measurements on a BioTek Cytation 5 cell imager and microplate reader. 10×10 pictures/well were taken at 20× magnification under FITC channel and the punctate counting was carried out using built-in software. Each data set was collected from technical replicates on at least two different days. Every experiment included control wells (no tau, no heparin, and no NAP). All data plots were generated with SigmaPlot. Error bars shown are standard deviation from technical replicates.

[6] = molecular target: T1, synthetic, full-length Aβ42 (Homo sapiens, UniProt P05067); assay: ThT fluorescence assay with Aβ42; type: biochemical; settings: Aβ42 40 μM
T1 construct: synthetic, full-length Aβ42 (40 μM)
Procedure: A peptidomimetic approach to tau inhibition offers prospects for achieving selectivity over other amyloids rich in β structure. As a preliminary test, the best-performing tau mimic, compound 12 (EG09; SEQ ID NO: 18), was selected and its effect on Aβ42 aggregation in vitro was determined (FIG. 11).

T1 sequence (P05067 672-713 limits assumed): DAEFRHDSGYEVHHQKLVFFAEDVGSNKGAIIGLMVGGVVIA

**Q.** Which IC50 [1] does the source give for `CC[C@H](C)[C@H](NC(=O)[C@H](CCC(N)=O)NC(=O)[C@@H](NC(C)=O)C(C)C)C(=O)N(N)[C@H](C(=O)N[C@@H](Cc1ccc(O)cc1)C(=O)N(N)[C@@H](CCCCN)C(N)=O)C(C)C` [Compound 13, Ac-Val-Gln-Ile-aVal-Tyr-aLys-NH2] (Ac-VQI[X3]Y-{N(NH2)LysNH2}) here?
**A.** Its IC50 is about 5 µM.

**Q.** And the “stability in human serum” value [2]?
**A.** The value was “remarkably stable”.

**Q.** And the “cytotoxic effect, MTT assay” value [3]?
**A.** The value was “no appreciable toxicity; also recorded: non-cytotoxic”.

**Q.** Which results are given for “Ac-aVal-Gln-aIle-Ile-Asn-Lys-NH2 (Ac-[aVal]Q[aIle′]INK-NH2; SMILES CC[C@H](C)[C@H](NC(=O)[C@H]([C@@H](C)CC)N(N)C(=O)[C@H](CCC(N)=O)NC(=O)[C@H](C(C)C)N(N)C(C)=O)C(=O)N[C@@H](CC(N)=O)C(=O)N[C@@H](CCCCN)C(N)=O) [Compound 4]”?
**A.** effect on end-point ThT fluorescence of tauP301L (inhibition of Tau aggregation) [4]: significantly reduce; fibril morphology / inhibition of Tau fibril formation by TEM (tauP301L fibrils): non-fibrillary amorphous aggregates; also recorded: non-fibrillary, amorphous aggregates; seeding capacity of monomeric tauP301L pre-treated with inhibitor ([5]; 0.009 μM inhibitor): far weaker anti-seeding activity; seeding capacity of monomeric tauP301L pre-treated with inhibitor ([5]; 1.9 μM inhibitor): far weaker anti-seeding activity

**Q.** Which “effect on end-point ThT fluorescence of tauP301L (inhibition of Tau aggregation)” value (“effect … (inhibition of Tau aggregation)” below) [4] does the source give for “Ac-aVal-Gln-Ile-Val-Tyr-Lys-NH2 (Ac-[aVal]QIVYK-NH2; SMILES CC[C@H](C)[C@H](NC(=O)[C@H](CCC(N)=O)NC(=O)[C@H](C(C)C)N(N)C(C)=O)C(=O)N[C@H](C(=O)N[C@@H](Cc1ccc(O)cc1)C(=O)N[C@@H](CCCCN)C(N)=O)C(C)C) [Compound 5]” here?
**A.** Its value is “significantly reduce”.

**Q.** And the “fibril morphology / inhibition of Tau fibril formation by TEM” value (shortened to “fibril morphology / inhibition”) (tauP301L fibrils)?
**A.** Its value is “short, immature rod-like fibrils”.

**Q.** Which “effect … (inhibition of Tau aggregation)” value [4] does the source give for “Ac-Val-Gln-aIle-Ile-Asn-Lys-NH2 (Ac-VQ[aIle′]INK-NH2; SMILES CC[C@H](C)[C@H](NC(=O)[C@H]([C@@H](C)CC)N(N)C(=O)[C@H](CCC(N)=O)NC(=O)[C@@H](NC(C)=O)C(C)C)C(=O)N[C@@H](CC(N)=O)C(=O)N[C@@H](CCCCN)C(N)=O) [Compound 2]” here?
**A.** The value was “significantly reduce”.

**Q.** What about the “fibril morphology / inhibition” value (tauP301L fibrils) of the same compound?
**A.** Its value is “short, immature rod-like fibrils”.

**Q.** For “Ac-Val-Gln-Ile-Val-Tyr-aLys-NH2 (Ac-VQIVY[N(NH2)Lys]-NH2; SMILES CC[C@H](C)[C@H](NC(=O)[C@H](CCC(N)=O)NC(=O)[C@@H](NC(C)=O)C(C)C)C(=O)N[C@H](C(=O)N[C@@H](Cc1ccc(O)cc1)C(=O)N(N)[C@@H](CCCCN)C(N)=O)C(C)C) [Compound 9]”, which “fibril morphology / inhibition” value (tauP301L fibrils) is on record?
**A.** The value was “did not inhibit Tau fibril formation”.

**Q.** For “Ac-aVal-Gln-aIle-Val-aTyr-Lys-NH2 [Compound 14]”, which “fibril morphology / inhibition” value (tauP301L fibrils) is on record?
**A.** The value was “did not inhibit Tau fibril formation”.

**Q.** For `CC[C@H](C)[C@@H](C(=O)N[C@H](C(=O)N(N)[C@@H](Cc1ccc(O)cc1)C(=O)N[C@@H](CCCCN)C(N)=O)C(C)C)N(N)C(=O)[C@H](CCC(N)=O)NC(=O)[C@@H](NC(C)=O)C(C)C` [Compound 12, Ac-Val-Gln-aIle-Val-aTyr-Lys-NH2] (Ac-VQ[X1]V[X2]K-NH2), which “effect … (inhibition of Tau aggregation)” value [4] is on record?
**A.** The value was “significantly reduce”.

**Q.** And the “fibril morphology / inhibition” value (tauP301L fibrils)?
**A.** Its value is “non-fibrillary amorphous aggregates; also recorded: non-fibrillary, amorphous aggregates”.

**Q.** What about the “seeding capacity of monomeric tauP301L pre-treated with inhibitor” value ([5]; 0.009 μM inhibitor) of the same compound?
**A.** Its value is “less pronounced”.

**Q.** What about the “seeding capacity of monomeric tauP301L pre-treated with inhibitor” value ([5]; 1.9 μM inhibitor) of the same compound?
**A.** The value was “significantly reduced seeding capacity”.

**Q.** What about the IC50 [1] of the same compound?
**A.** Its IC50 is about 5 µM.

**Q.** And the “stability in human serum” value [2]?
**A.** Its value is “remarkably stable; also recorded: serum stable”.

**Q.** What about the “cytotoxic effect, MTT assay” value [3] of the same compound?
**A.** The value was “no appreciable toxicity; also recorded: non-cytotoxic; also recorded: non-toxic to neuronal cells”.

**Q.** What about the “effect on lag-time of Aβ42 aggregation” value ([6]; any of the concentrations tested) of the same compound?
**A.** The value was “no effect on lag-time”.

**Q.** And the “inhibitory effect on Aβ42 aggregation” value ([6]; compound up to 4-fold molar excess (160 μM), ThT)?
**A.** The value was “no inhibitory effect”.

**Q.** For “Ac-Val-Gln-aIle-Val-Tyr-Lys-NH2 (Ac-VQ[aIle′]VYK-NH2; SMILES CC[C@H](C)[C@@H](C(=O)N[C@H](C(=O)N[C@@H](Cc1ccc(O)cc1)C(=O)N[C@@H](CCCCN)C(N)=O)C(C)C)N(N)C(=O)[C@H](CCC(N)=O)NC(=O)[C@@H](NC(C)=O)C(C)C) [Compound 6]”, which “effect … (inhibition of Tau aggregation)” value [4] is on record?
**A.** The value was “significantly reduce”.

**Q.** What about the “fibril morphology / inhibition” value (tauP301L fibrils) of the same compound?
**A.** The value was “short, immature rod-like fibrils”.

**Q.** For “Ac-aVal-Gln-aIle-Val-Tyr-Lys-NH2 (Ac-[aVal]Q[aIle′]VYK-NH2; SMILES CC[C@H](C)[C@@H](C(=O)N[C@H](C(=O)N[C@@H](Cc1ccc(O)cc1)C(=O)N[C@@H](CCCCN)C(N)=O)C(C)C)N(N)C(=O)[C@H](CCC(N)=O)NC(=O)[C@H](C(C)C)N(N)C(C)=O) [Compound 10]”, which “fibril morphology / inhibition” value (tauP301L fibrils) is on record?
**A.** Its value is “did not inhibit Tau fibril formation”.
